The numbers were not newly measured in patent US4303671A, “Albumin stabilized prostacyclin” (priority 1980, dated 1981), which cites them from elsewhere.

For data set [1] the following is noted: human plasma and human serum albumin; FASEB Meeting abstract, 1980.
The conditions of data set [2]: kept in whole blood or plasma; The Lancet, July 29, 1978.
The subject of data set [3] is blood platelet aggregation. The note with it: at the time of its discovery.
For data set [4] the following is noted: under acid conditions, including at physiological pH's.
The conditions of data set [5]: FEBS Letters 82:321-324 (1977).

Regarding `CCCCC[C@H](O)/C=C/[C@@H]1[C@H]2C/C(=C/CCCC(=O)O)O[C@H]2C[C@H]1O` [prostacyclin, 9-deoxy-6,9α-epoxy-(5Z)-5,6-didehydro-PGF1], the “stabilization by albumin (in words)” value in data set [1] is listed as “albumin stabilizes prostacyclin”. For the same compound, the “protection against degradation (in words)” value in data set [2] is recorded as “probably protected against degradation when kept in whole blood or plasma”. In data set [3], the “potency to inhibit blood platelet aggregation (in words)” value is “most potent prostaglandin-related substance effective to inhibit blood platelet aggregation”. For the same compound, the “chemical stability (in words)” value in data set [4] is listed as “spontaneously decomposes to 6-oxo-PGF1α”.
Regarding `CCCCC[C@H](O)/C=C/[C@H]1O[C@H]2C[C@H](O2)[C@@H]1C/C=C\CCCC(=O)O` [thromboxane A2], the “stabilization of thromboxane A2 by albumin (in words)” value in data set [5] is listed as “ability to stabilize thromboxane A2”.
